# In ChEMBL document CHEMBL5291721, “A preclinical secondary pharmacology resource illuminates target-adverse drug reaction associations of marketed drugs” (Nat Commun, 2023):
# Legend:
# [1] = biological target: Voltage-gated inwardly rectifying potassium channel KCNH2 (Homo sapiens, UniProt Q12809); type: functional; conditions: read-out: AC50
# [2] = biological target: T1, Amine oxidase [flavin-containing] A (Homo sapiens, UniProt P21397); type: functional
# T1 sequence (P21397 whole entry): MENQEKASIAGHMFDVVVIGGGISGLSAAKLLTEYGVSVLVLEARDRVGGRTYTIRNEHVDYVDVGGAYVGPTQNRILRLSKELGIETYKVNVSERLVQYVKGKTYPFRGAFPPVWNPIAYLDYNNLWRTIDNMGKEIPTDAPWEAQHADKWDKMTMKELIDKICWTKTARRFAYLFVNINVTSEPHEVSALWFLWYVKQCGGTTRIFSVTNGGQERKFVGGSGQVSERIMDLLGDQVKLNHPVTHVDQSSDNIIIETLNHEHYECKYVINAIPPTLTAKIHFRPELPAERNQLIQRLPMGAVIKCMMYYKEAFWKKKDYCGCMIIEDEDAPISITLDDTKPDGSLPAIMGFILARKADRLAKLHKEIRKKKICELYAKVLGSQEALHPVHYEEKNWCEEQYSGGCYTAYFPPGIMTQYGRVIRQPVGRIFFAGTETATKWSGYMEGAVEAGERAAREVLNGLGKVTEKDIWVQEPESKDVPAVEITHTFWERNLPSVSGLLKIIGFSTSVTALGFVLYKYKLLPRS
# [3] = biological target: Delta-type opioid receptor (Homo sapiens, UniProt P41143)
# Sequence of Delta-type opioid receptor (P41143 whole entry): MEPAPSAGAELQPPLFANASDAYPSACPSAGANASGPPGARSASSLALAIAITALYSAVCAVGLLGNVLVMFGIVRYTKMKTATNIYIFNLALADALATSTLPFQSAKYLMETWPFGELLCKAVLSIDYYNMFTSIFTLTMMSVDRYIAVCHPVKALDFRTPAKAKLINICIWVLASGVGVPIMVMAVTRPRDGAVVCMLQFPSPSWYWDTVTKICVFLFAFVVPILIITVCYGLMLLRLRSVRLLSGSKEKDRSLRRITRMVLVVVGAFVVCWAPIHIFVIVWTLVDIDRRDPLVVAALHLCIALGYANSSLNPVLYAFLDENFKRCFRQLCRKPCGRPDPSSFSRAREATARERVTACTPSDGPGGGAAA
# [4] = biological target: Sodium-dependent dopamine transporter (Homo sapiens, UniProt Q01959)
# Adenosine receptor A1 = biological target: T2, Adenosine receptor A1 (Homo sapiens, UniProt P30542)
# T2 sequence (P30542 whole entry): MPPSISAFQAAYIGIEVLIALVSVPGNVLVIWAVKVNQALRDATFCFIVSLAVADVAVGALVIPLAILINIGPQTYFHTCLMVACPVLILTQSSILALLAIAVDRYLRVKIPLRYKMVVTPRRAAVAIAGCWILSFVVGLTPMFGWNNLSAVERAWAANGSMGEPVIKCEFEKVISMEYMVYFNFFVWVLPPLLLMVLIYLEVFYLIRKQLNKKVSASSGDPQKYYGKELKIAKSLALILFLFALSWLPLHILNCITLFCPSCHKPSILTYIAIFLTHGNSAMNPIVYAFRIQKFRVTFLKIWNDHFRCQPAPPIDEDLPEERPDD
# Progesterone receptor = biological target: T3, Progesterone receptor (Homo sapiens, UniProt P06401); type: functional
# T3 sequence (P06401 whole entry): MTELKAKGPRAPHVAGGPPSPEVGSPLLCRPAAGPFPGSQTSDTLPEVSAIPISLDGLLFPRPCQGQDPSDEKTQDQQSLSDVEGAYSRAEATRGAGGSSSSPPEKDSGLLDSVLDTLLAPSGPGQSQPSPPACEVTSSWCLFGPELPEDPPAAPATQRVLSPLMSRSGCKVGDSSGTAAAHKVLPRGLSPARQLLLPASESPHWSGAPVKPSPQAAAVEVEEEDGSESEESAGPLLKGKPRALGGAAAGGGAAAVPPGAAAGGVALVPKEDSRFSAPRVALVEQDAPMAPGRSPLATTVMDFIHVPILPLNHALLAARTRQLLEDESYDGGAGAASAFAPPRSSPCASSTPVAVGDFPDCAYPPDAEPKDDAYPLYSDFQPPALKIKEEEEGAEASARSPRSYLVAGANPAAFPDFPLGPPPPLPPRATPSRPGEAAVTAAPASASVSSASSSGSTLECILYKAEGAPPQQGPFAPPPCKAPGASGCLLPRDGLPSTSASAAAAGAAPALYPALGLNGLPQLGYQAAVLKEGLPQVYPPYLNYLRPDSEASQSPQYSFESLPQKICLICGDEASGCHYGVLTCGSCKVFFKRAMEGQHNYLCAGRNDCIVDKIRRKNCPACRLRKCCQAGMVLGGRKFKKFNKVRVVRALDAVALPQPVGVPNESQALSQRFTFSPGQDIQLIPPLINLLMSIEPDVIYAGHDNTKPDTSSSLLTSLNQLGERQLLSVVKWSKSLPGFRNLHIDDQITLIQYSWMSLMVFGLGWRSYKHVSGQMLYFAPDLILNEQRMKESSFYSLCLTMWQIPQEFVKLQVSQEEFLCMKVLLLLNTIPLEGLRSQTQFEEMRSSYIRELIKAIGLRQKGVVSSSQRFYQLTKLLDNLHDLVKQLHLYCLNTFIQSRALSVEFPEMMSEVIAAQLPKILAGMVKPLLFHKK
# [5] = biological target: Voltage-dependent L-type calcium channel subunit alpha-1C (Rattus norvegicus, UniProt P22002); type: functional
# Sequence of Voltage-dependent L-type calcium channel subunit alpha-1C (P22002 whole entry): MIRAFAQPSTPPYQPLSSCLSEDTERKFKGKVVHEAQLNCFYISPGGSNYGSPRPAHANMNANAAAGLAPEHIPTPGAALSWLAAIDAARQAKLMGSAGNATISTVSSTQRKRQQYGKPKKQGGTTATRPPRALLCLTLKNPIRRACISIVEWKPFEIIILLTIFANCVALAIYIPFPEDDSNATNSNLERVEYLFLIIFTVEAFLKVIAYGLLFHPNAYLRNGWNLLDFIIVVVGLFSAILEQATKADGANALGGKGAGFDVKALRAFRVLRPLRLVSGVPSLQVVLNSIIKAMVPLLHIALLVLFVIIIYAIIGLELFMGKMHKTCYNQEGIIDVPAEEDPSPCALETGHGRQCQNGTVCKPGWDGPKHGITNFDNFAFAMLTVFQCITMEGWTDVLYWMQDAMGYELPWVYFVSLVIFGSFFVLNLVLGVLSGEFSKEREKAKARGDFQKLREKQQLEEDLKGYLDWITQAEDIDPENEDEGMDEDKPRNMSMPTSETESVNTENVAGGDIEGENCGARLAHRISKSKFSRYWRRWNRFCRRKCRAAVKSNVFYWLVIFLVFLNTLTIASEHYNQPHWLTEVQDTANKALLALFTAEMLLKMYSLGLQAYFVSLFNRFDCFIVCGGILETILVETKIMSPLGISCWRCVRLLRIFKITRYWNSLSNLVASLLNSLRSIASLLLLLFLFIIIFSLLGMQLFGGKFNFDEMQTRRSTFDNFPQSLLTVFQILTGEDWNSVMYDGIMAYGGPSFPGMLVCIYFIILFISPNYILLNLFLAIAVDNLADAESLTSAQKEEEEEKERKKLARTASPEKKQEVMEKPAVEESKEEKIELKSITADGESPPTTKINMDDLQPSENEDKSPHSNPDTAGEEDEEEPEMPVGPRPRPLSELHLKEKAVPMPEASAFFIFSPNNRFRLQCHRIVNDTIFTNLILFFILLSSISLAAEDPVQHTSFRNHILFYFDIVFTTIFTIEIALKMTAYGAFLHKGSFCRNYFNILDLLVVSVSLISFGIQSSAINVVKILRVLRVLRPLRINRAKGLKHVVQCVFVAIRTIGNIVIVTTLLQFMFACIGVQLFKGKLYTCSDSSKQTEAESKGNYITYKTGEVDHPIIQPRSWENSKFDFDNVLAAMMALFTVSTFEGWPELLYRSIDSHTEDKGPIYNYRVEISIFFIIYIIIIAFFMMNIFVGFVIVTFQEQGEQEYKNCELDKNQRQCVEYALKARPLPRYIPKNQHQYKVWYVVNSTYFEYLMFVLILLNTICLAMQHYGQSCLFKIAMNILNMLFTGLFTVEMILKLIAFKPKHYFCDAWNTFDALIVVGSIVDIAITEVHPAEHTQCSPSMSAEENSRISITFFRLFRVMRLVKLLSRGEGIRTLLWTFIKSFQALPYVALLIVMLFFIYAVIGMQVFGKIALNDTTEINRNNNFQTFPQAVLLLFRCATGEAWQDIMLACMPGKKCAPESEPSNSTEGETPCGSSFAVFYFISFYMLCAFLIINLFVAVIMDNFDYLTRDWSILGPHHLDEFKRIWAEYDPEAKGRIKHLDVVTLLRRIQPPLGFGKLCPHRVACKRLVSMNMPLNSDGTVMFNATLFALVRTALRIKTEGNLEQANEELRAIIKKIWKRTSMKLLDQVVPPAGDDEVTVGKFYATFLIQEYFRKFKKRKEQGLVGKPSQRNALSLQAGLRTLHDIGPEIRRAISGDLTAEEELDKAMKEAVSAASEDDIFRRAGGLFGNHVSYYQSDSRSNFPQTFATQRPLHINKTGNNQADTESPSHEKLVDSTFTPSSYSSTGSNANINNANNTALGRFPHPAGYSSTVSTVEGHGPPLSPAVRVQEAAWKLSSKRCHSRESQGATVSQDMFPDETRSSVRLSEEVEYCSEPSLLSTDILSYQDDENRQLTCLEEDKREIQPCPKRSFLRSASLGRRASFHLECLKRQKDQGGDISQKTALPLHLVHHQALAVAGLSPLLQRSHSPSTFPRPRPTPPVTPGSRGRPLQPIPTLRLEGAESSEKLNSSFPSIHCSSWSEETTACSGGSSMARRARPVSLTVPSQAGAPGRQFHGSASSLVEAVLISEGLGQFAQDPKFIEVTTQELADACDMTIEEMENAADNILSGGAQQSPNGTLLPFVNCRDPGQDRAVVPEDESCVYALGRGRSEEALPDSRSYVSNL
# [6] = biological target: T4, Alpha-2A adrenergic receptor (Homo sapiens, UniProt P08913); type: functional, cell-based
# T4 sequence (P08913 whole entry): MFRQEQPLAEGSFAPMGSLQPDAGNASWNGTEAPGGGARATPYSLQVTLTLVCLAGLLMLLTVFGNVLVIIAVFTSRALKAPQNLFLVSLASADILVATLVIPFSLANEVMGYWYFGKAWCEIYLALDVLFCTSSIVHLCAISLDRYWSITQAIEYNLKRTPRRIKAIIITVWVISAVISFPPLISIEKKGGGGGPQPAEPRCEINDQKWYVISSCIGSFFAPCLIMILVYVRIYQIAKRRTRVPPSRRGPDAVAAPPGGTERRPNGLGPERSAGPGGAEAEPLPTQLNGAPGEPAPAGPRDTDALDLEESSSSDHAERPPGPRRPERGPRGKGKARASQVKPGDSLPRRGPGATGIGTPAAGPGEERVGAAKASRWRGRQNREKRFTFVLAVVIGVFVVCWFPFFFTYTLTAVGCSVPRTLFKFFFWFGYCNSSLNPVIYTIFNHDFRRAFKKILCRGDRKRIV
# [7] = biological target: Sodium-dependent noradrenaline transporter (Homo sapiens, UniProt P23975)
# Sequence of Sodium-dependent noradrenaline transporter (P23975 whole entry): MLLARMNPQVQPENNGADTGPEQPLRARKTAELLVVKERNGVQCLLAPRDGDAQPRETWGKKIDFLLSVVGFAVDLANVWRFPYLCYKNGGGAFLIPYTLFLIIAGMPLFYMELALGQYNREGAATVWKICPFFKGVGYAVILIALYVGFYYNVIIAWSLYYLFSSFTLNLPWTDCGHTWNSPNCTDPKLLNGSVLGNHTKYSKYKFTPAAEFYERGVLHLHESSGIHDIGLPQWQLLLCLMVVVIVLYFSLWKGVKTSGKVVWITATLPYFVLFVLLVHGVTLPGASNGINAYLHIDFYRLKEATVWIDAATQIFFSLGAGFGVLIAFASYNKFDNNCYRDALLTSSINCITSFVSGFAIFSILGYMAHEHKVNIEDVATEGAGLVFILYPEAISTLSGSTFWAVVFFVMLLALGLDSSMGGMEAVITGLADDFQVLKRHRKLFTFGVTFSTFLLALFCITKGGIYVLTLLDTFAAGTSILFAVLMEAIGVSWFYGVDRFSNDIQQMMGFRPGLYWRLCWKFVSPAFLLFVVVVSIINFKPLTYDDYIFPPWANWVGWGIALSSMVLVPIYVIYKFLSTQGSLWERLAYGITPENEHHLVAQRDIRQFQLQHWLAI
# Melanocortin receptor 3 = Melanocortin receptor 3 (Homo sapiens, UniProt P41968)
# Sequence of Melanocortin receptor 3 (P41968 whole entry): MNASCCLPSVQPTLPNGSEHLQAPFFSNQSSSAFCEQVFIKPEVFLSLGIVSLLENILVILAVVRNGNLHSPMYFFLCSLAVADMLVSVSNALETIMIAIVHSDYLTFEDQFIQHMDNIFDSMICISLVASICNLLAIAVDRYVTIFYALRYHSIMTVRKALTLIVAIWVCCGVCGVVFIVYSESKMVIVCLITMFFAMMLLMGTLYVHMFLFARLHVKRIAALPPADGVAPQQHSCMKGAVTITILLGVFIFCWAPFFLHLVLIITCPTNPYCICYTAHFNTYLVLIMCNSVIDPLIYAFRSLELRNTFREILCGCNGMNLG
# [8] = biological target: T4, Alpha-2A adrenergic receptor; type: functional, cell-based; remark: listed apart in the source
# [9] = biological target: Glutamate receptor ionotropic, NMDA 1 (Rattus norvegicus, UniProt P35439)
# Note: assay procedure not described here.
# Sequence of Voltage-gated inwardly rectifying potassium channel KCNH2 (Q12809 whole entry): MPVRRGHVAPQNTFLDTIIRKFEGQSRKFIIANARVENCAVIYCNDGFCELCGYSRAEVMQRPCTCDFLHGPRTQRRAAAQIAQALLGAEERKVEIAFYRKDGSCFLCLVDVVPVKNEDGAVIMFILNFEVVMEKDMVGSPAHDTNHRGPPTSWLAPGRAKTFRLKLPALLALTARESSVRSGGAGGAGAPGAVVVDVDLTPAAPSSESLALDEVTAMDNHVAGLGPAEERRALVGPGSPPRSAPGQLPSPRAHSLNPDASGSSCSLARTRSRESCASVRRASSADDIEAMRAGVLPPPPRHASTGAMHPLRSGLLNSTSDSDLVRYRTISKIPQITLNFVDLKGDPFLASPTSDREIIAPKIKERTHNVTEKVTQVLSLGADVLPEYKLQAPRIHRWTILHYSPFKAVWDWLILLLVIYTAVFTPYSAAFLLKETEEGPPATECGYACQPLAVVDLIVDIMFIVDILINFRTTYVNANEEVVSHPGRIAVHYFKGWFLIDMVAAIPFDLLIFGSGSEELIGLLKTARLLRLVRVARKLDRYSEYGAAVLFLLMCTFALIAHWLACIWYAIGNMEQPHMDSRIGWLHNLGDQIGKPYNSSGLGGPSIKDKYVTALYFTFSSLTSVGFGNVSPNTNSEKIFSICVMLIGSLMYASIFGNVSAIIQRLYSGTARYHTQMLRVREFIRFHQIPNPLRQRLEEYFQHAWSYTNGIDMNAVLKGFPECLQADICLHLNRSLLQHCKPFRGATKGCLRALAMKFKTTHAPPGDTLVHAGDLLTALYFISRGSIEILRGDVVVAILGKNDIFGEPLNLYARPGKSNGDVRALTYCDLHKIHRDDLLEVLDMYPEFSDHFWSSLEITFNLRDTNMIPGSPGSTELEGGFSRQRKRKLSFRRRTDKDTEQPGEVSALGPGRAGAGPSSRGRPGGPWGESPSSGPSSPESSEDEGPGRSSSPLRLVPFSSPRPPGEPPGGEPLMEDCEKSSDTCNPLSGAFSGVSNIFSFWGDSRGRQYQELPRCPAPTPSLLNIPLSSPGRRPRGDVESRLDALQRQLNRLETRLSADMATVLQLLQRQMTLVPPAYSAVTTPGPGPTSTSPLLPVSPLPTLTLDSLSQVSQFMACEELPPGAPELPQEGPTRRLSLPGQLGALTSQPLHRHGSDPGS
structure (smiles),measurement,setting,value
Fc1ccc(C(c2ccccc2)(c2ccccc2F)n2ccnc2)cc1 (stereo unspecified) [FLUTRIMAZOLE],AC50,[1],1.68 µM
same,AC50,[2],> 30 µM
same,AC50,[3],> 30 µM
same,AC50,[4],23 µM
same,AC50,Adenosine receptor A1,> 30 µM
same,AC50,Progesterone receptor,> 30 µM
same,AC50,[5],> 30 µM
same,AC50,[6],> 30 µM
same,AC50,[7],> 30 µM
same,AC50,Melanocortin receptor 3,> 30 µM
same,AC50,[8],> 30 µM
same,AC50,[9],> 30 µM
C[C@@H]1O[C@@H](O[C@@H]2C=C3CC[C@@H]4[C@H](CC[C@]5(C)[C@@H](c6ccc(=O)oc6)CC[C@]45O)[C@@]3(C)CC2)[C@H](O)[C@H](O)[C@H]1O [PROSCILLARIDIN],AC50,[1],> 30 µM
same,AC50,[2],> 30 µM
same,AC50,[3],> 30 µM
same,AC50,[4],> 30 µM
same,AC50,Adenosine receptor A1,> 30 µM
same,AC50,Progesterone receptor,> 30 µM
same,AC50,[5],> 30 µM
same,AC50,[6],> 30 µM
same,AC50,[7],> 30 µM
same,AC50,Melanocortin receptor 3,> 30 µM
same,AC50,[8],> 30 µM
same,AC50,[9],> 30 µM
C#C[C@]1(O)CC[C@H]2[C@@H]3[C@H](C)CC4=C(CCC(=O)C4)[C@H]3CC[C@@]21C [TIBOLONE],AC50,[1],> 30 µM
same,AC50,[2],> 30 µM
same,AC50,[3],> 30 µM
same,AC50,[4],27 µM
same,AC50,Adenosine receptor A1,> 30 µM
same,AC50,Progesterone receptor,0.4 µM
same,AC50,[5],> 30 µM
same,AC50,[6],> 30 µM
same,AC50,[7],> 30 µM
same,AC50,Melanocortin receptor 3,> 30 µM
same,AC50,[8],> 30 µM
same,AC50,[9],> 30 µM
